Experimental data: patent US20220119446A1, “BIOMARKERS AND TREATMENT OF NEURONAL INJURY AND NEURODEGENERATION” (Board of Supervisons of Louisiana State University and …, priority 2018, published 2022)
“Also recorded” adds a separate entry of the source. * marks the point of attachment. Boc = CC(C)(C)OC(=O)*

Tested on: rats subjected to MCAo
Test: Transient MCAo: MRI of lesion volume
Format: in vivo
Conditions: rat, 2 h MCAo, Box5 IV 1 h later, day 7
Description: The right MCA can be occluded for 2 h by intraluminal filament, as described previously (Belayev et al. 2011). Briefly, the right common carotid artery (CCA) and external carotid artery (ECA) can be exposed through midline neck incision, and then completely isolated from the surrounding nerves. The occipital branches of the ECA and pterygopalatine artery can be ligated. A 4-cm of 3-0 nylon filament, coated with poly-L-lysine can be advanced to the origin of MCA through the proximal ECA via internal carotid artery. The filament can be inserted 20 to 22 mm from the bifurcation of the CCA, according to the animal's body weight. The neck incision can then be closed, and the rats can be returned to their cages. After about 2 h of MCAo, the rats can be re-anesthetized with the same anesthetic combination and the intraluminal filament can be gently removed. […]
In embodiments, high-resolution ex vivo magnetic resonance imaging (MRI) is performed on 4% paraformaldehyde-fixed brains at each time point (days 1, 3 and 7) using an 11.7T Bruker Advance 8.9 cm horizontal bore instrument equipped with an 89 mm (ID) receiver coil (Bruker Biospin, Billerica, Mass., USA). T2-weighted images (T2WI), diffusion weighted images (DWI), 3D volumes and apparent diffusion coefficient (ADC) maps can be collected and analyzed as previously described and known in the art (Obenaus et al. 2011). […]

t-Boc-NH-Met-Asp-Gly-Cys-Glu-Leu-CO2H (Boc-MDGCEL-OH) [Box5]
MRI lesion (infarct) volume: steep decreased in the infarcted volume; also recorded: resembling DHA treatment; also recorded: reduces stroke size; also recorded: decreased volume of brain damage
